Measurements taken from patent publication US3966731A, “2-Fluoromethyl-3-o-tolyl-6-amino-4(3H)-quinazolinone” (Tanabe Seiyaku Co., Ltd., priority 1973, dated 1976).

Legend:
carageenin-induced edema = test: Anti-inflammatory activity, carageenin-induced edema; format: in vivo, rats
Description: (§1) The quinazolinone derivative [I] of the present invention has potent tranquilizing, anti-convulsive and analgesic activities. […] On the other hand, when examined under the same condition as above, 200 mg of Mefenamic acid[Chemical name: N-(2,3-xylyl)anthranilic acid] are required to produce 25 % decrease in said carageenin-induced edema.
Anti-inflammatory activity. A drug was administered orally to rats at the
dose of 30 mg/kg. To the control group was administered orally a
physiological saline solution. After one hour, one % carageenin solution
was injected subcutaneously to the rats through planta of hind legs at th
dose of 0.5 ml/rat. Then, the volume of the hind legs in the control and
medicated groups were measured at 3 hours after injection of carageenin,
and the preventive effect (%) of the drug against carageenin-induced edem
was calculated therefrom.

mice [1] = test: Muscle relaxing activity, rotating rod method (oral, mice); format: in vivo; conditions: Mus musculus, 0.5 h, 30 minutes after dosing, read-out: Muscle relaxing activity ED50 (C)
Description: (§2) (C) :Activity examined by the rotating rod method. A drug was administere
(§3) orally to mice. After 30 minutes of the dosing, the mice were placed for
(§4) minutes on rotating rods (3.5 cm in diameter, 14 rpm.). ED50 of the
(§5) drug was estimated from the number of mice which fell out of the rods

[2] = Acute toxicity (oral, mice, 72 hours); safety margin; format: in vivo; conditions: mouse, in vivo, mice, oral; for selectivity ratio: po; for LD50 at 72 h: died 72 hours after dosing, read-out: Side effect: Acute toxicity LD50 (E)
Description: (§6) (E) :A drug was administered orally to mice. The 50 % lethal dose
(§7) (LD50) of the drug was estimated from the number of mice which died
(§8) 72 hours after the dosing.
(§9) Therapeutic index and Safety margin: Said index and margin were calculate

[3] = Hypnotic activity, loss of righting reflex (oral, mice); therapeutic index; format: in vivo; conditions: mouse, in vivo, mice, oral; for selectivity ratio: po; for TD50: loss of righting reflex for more than 20 seconds in 50 % of the mice, read-out: Side effect: Hypnotic activity HD50 (D)
Description: (§10) (D) :A drug was administered orally to mice. The hypnotic activity of the
(§11) drug was determined by the number of mice which lost righting reflex for
(§12) more than 20 seconds. HD50 of the drug was estimated as the dose
(§13) which was required to produce the losing of righting reflex in 50 % of th
as §9

mice [4] = test: as above; format: in vivo; conditions: for hypnotic activity (side effect), in words: mouse, in vivo
Description: as §10, §11, §12, §13, §9

mice [5] = test: Muscle relaxing activity, inclined plate method (oral, mice); format: in vivo; conditions: Mus musculus, 15, 30 and 45 minutes after dosing, read-out: Muscle relaxing activity ED50 (B)
Description: (§14) (B) :Activity examined by the inclined plate method. A drug was
(§15) administered orally to mice. After 15, 30 and 45 minutes of the dosing,
(§16) the mice were put on the center of a canvas (60 cm in length and 50 cm in
(§17) width) having been set up with an inclination of 60 degrees. ED50 of
(§18) the drug was estimated from the number of mice which slipped down from th
(§19) canvas within one minute.

[6] = system: cardiazol-induced convulsive death in mice; test: Anti-cardiazol activity, protection from cardiazol-induced convulsive death; format: in vivo; conditions: for ED50: Mus musculus, oral, 125 mg of cardiazol s.c. 30 minutes after dosing, protection at 60 minutes
Description: as §1
Anti-cardiazol activity. A drug was administered orally to mice. After 30
minutes of the dosing, 125 mg of cardiazol were injected subcutaneously t
the mice. ED50 of the drug was estimated from the number of mice
which were protected from cardiazol-induced convulsive death 60 minutes
after injection of cardiazol.

mice [7] = test: Muscle relaxing activity, traction method (oral, mice); format: in vivo; conditions: Mus musculus, 10, 20 and 30 minutes after dosing
Description: (§20) (A) :Activity examined by the traction method. A drug was administered
(§21) orally to mice. After 10, 20 and 30 minutes of the dosing, the mice were
(§22) suspended by the forepaws to a metallic wire of 1 mm in diameter.
(§23) ED50 of the drug was estimated from the number of mice which fell ou
(§24) of the wire within 10 seconds.

[8] = Japanese patent application No. 81910/1971; cited from earlier work
[9] = system: acetic acid-induced writhings; test: Analgesic activity, acetic acid-writhing method; format: in vivo, mice; conditions: for ED50: Mus musculus, oral, mice, 1 % acetic acid i.p., 50 % reduction in writhings
Description: as §1
Analgesic activity. One % acetic acid solution was injected
intraperitoneally to mice at the dose of […] after oral
administration of a drug, and the number of writhings per mouse was
counted for 5 minutes starting at 10 minutes after injection of acetic
acid. ED50 of the drug was estimated as the dose which would produce
50 % reduction in acetic acid-induced writhings.

mice [10] = test: Acute toxicity (oral, mice, 72 hours); safety margin; format: in vivo; conditions: vs 2-methyl-3-(o-tolyl)-6-amino-4(3H)-quinazolinone; ratio of muscle relaxing activity to acute toxicity
Description: as §6, §7, §8, §9

[11] = Tranquilizing activity (no method given); conditions: in vivo
[12] = Arzneimittel Forshung 21(1971), 238-243; U.S. Pat. No. 3317388; cited from earlier work
mice [13] = test: Central muscle relaxing activity (Table 1, traction, inclined plate and rotating rod methods together); conditions: mouse, in vivo
Description: as §20, §21, §22, §23, §24, §14, §15, §16, §17, §18, §19, §2, §3, §4, §5

[14] = LD50 / ED50 inclined plate method, read-out: Safety margin E/B
[15] = LD50 / ED50 rotating rod method, read-out: Safety margin E/C
[16] = LD50 / ED50 traction method, read-out: Safety margin E/A
[17] = HD50 / ED50 inclined plate method, read-out: Therapeutic index D/B
[18] = HD50 / ED50 rotating rod method, read-out: Therapeutic index D/C
[19] = HD50 / ED50 traction method, read-out: Therapeutic index D/A

Structure (SMILES)	ED50 (mice [1])	selectivity ratio [2, 14]	selectivity ratio [2, 15]	selectivity ratio [2, 16]	LD50 at 72 h [2]	selectivity ratio [3, 17]	selectivity ratio [3, 18]	selectivity ratio [3, 19]	TD50 [3]	hypnotic activity (side effect), in words (mice [4])	ED50 (mice [5])	ED50 ([6]; mice)	ED50 (mice [7])	ED50 [9]	also measured
Cc1cccc(Nc2ccccc2C(=O)O)c1C [Mefenamic acid, N-(2,3-xylyl)anthranilic acid]															decrease in carageenin-induced edema (carageenin-induced edema; 200 mg of Mefenamic acid required, same condition (oral, rats)): 25%
Cc1ccccc1OCC(O)CO (stereo not drawn) [Mephenesin, 3-(o-tolyloxy)-1,2-propanediol]	498 mg/kg	3.7	4.1	3.8	2020 mg/kg	1.5	1.66	1.56	824 mg/kg	potent hypnotic activity	551 mg/kg	600 mg/kg	527 mg/kg		
Cc1ccccc1-n1c(CF)nc2ccccc2c1=O [2-fluoromethyl-3-(o-tolyl)-4(3H)-quinazolinone]	67.5 mg/kg	12.1	10.5	5.1	710 mg/kg	1.48	1.29	0.63	87.3 mg/kg		58.9 mg/kg	56.1 mg/kg	138 mg/kg	42.1 mg/kg	hypnotic use, in words (Inoue et al) [8]: useful as hypnotic agents
CN1C(=O)CCS(=O)(=O)C1c1ccc(Cl)cc1 (stereo not drawn) [Chlormezanone, 2-(p-chlorophenyl)tetrahydro-3-methyl-4H-1,3-thiazin-4-one 1,1-dioxide]	222 mg/kg	8.6	6.1	6.5	1340 mg/kg	2.47	1.74	1.86	386 mg/kg	potent hypnotic activity	156 mg/kg	28.8 mg/kg	208 mg/kg	258 mg/kg	
Cc1ccccc1-n1c(CF)nc2ccc(N)cc2c1=O [quinazolinone derivative [I], 2-fluoromethyl-3-(o-tolyl)-6-amino-4(3H)-quinazolinone]	22.4 mg/kg	27.4	23.6	25.5	528 mg/kg	2.75	2.37	2.57	53.1 mg/kg	relatively less hypnotic activity	19.3 mg/kg	15.7 mg/kg	20.7 mg/kg	11.8 mg/kg	safety margin, times superior to 2-methyl-3-(o-tolyl)-6-amino-4(3H)-quinazolinone (mice [10]): about 7 times; therapeutic index, times superior to Chlormezanone (mice [4]; vs Chlormezanone, ratio of muscle relaxing to hypnotic activity): about 2 times; therapeutic index, times superior to Mephenesin (mice [4]; vs Mephenesin, ratio of muscle relaxing to hypnotic activity): about 2 times; tranquilizing activity, in words [11]: potent; analgesic activity (ED50) compared with Chlormezanone ([9]; acetic acid-writhing method, in words): apparently stronger than that of Chlormezanone; analgesic activity, in words ([9]; mouse, in vivo): potent; Anti-inflammatory activity: preventive effect (%) against carageenin-induced edema (carageenin-induced edema; oral, rats, 30 mg/kg, 3 hours after carageenin): 28%; anti-inflammatory activity, in words (carageenin-induced edema; rat, in vivo): potent anti-inflammatory activity; anti-convulsive activity, in words ([6]; mouse, in vivo): potent; anti-cardiazol activity, times superior to 2-fluoromethyl-3-(o-tolyl)-4(3H)-quinazolinone ([6]; vs 2-fluoromethyl-3-(o-tolyl)-4(3H)-quinazolinone, mice): 3.6 times; anti-cardiazol activity, times superior to 2-methyl-3-(o-tolyl)-6-amino-4(3H)-quinazolinone ([6]; vs 2-methyl-3-(o-tolyl)-6-amino-4(3H)-quinazolinone, mice): 1.1 times; anti-cardiazol activity (ED50), times superior to Chlormezanone ([6]; vs Chlormezanone, mice): about 2 times
Cc1ccccc1-n1c(C)nc2ccc(N)cc2c1=O [2-methyl-3-(o-tolyl)-6-amino-4(3H)-quinazolinone]	22.5 mg/kg								33.7 mg/kg		22.5 mg/kg	16.9 mg/kg	24 mg/kg	10 mg/kg	muscle relaxing activity, in words (Breuer et al) [12]: shows a muscle relaxing activity; muscle relaxing activity, in words (mice [13]): relatively strong muscle relaxing activity
Cc1ccccc1-n1c(CF)nc2ccc([N+](=O)[O-])cc2c1=O [2-fluoromethyl-3-(o-tolyl)-6-nitro-4(3H)-quinazolinone]	> 100 mg/kg								> 100 mg/kg		> 100 mg/kg		> 100 mg/kg		hypnotic use, in words (Inoue et al) [8]: useful as hypnotic agents
